Laboratory results reported in ChEMBL document CHEMBL4385608, “5-Aryl-1,3,4-oxadiazol-2-ylthioalkanoic Acids: A Highly Potent New Class of Inhibitors of Rho/Myocardin-Related Transcription Factor (MRTF)/Serum Response Factor (SRF)-Mediated Gene Transcription as Potential Antifibrotic Agents for Scleroderma” (J Med Chem, 2019).
Converted amounts (≈) assume the structure as drawn. The source made the active and inactive calls. No cut-off for these calls is given here.

What was measured:
[1] = Inhibition of Rho/MRTF/SRF pathway (unknown origin) expressed in human PC3 cells assessed as reduction in Galpha12 Q231L-stimulated MRTF-selective SRE.L promoter-driven luciferase activity after overnight incubation by luminescence assay; assay type: cell-based
PC-3 [2] = assay: Cytotoxicity against human PC3 cells assessed as reduction in cell viability up to 100 uM by WST-1 assay relative to control; assay type: cell-based
[3] = Inhibition of Rho/MRTF/SRF pathway (unknown origin) expressed in HEK293T cells assessed as reduction in Galpha12-stimulated MRTF-selective SRE.L promoter-driven luciferase activity after overnight incubation by luminescence assay; assay type: cell-based, Homo sapiens
HEK-293T = assay: Cytotoxicity against HEK293T cells assessed as reduction in cell viability up to 100 uM by WST-1 assay relative to control; assay type: cell-based; conditions: human
[4] = AUC in CD-1 mouse at 10 mg/kg, iv by LC-MS/MS analysis; assay type: ADME, organism-based; conditions: in vivo
[5] = AUC in CD-1 mouse at 20 mg/kg, po by LC-MS/MS analysis; assay type: ADME, organism-based; conditions: in vivo
[6] = Cmax in CD-1 mouse at 20 mg/kg, po by LC-MS/MS analysis; assay type: ADME, organism-based; parameters: dose 20 mg/kg, route oral; conditions: in vivo
[7] = Cmax in CD-1 mouse at 10 mg/kg, iv by LC-MS/MS analysis; assay type: ADME, organism-based; parameters: dose 10 mg/kg, route intravenous; conditions: in vivo
[8] = Thermodynamic solubility of the compound; assay type: physicochemical; conditions: read-out: Therm_solubility
[9] = Clearance in CD-1 mouse at 10 mg/kg, iv by LC-MS/MS analysis; assay type: ADME, organism-based; conditions: in vivo
[10] = Oral bioavailability in CD-1 mouse at 20 mg/kg by LC-MS/MS analysis; assay type: ADME, organism-based; conditions: in vivo
[11] = Half-life in CD-1 mouse at 10 mg/kg, iv by LC-MS/MS analysis; assay type: ADME, organism-based; conditions: in vivo
[12] = Half-life in CD-1 mouse at 20 mg/kg, po by LC-MS/MS analysis; assay type: ADME, organism-based; conditions: in vivo
[13] = Half-life in CD-1 mouse liver microsomes at 1 uM in presence of NADPH by LC-MS/MS analysis; assay type: ADME, Microsome
[14] = Cmax in CD-1 mouse at 30 mg/kg, po by LC-MS/MS analysis; assay type: ADME, organism-based; parameters: dose 30 mg/kg, route oral; conditions: in vivo
[15] = AUC in CD-1 mouse at 30 mg/kg, po by LC-MS/MS analysis; assay type: ADME, organism-based; conditions: in vivo
[16] = Half-life in CD-1 mouse at 15 mg/kg, iv by LC-MS/MS analysis; assay type: ADME, organism-based; conditions: in vivo
Homo sapiens [17] = species: Homo sapiens; assay: Inhibition of Rho/MRTF/SRF pathway in human primary dermal fibroblasts assessed as reduction in LPA-stimulated CTGF mRNA expression preincubated for 72 hrs followed by LPA stimulation and measured after 1 hr by qPCR analysis
[18] = AUC in CD-1 mouse at 15 mg/kg, iv by LC-MS/MS analysis; assay type: ADME, organism-based; conditions: in vivo
Mus musculus [19] = assay: Antifibrotic activity in bleomycin-induced mouse model of dermal fibrosis assessed as decrease in hydroxyproline content administered daily via oral gavage for 14 days measured post-last dose; assay type: functional, organism-based
Mus musculus [20] = assay: Antifibrotic activity in bleomycin-induced mouse model of dermal fibrosis assessed as decrease in dermal thickness administered daily via oral gavage for 14 days measured post-last dose by Masson's trichrome-staining based microscopic method; assay type: functional, organism-based
[21] = Cmax in CD-1 mouse at 15 mg/kg, iv by LC-MS/MS analysis; assay type: ADME, organism-based; parameters: dose 15 mg/kg, route intravenous; conditions: in vivo
[22] = Clearance in CD-1 mouse at 15 mg/kg, iv by LC-MS/MS analysis; assay type: ADME, organism-based; conditions: in vivo
Homo sapiens [23] = species: Homo sapiens; assay: Inhibition of Rho/MRTF/SRF pathway in human primary dermal fibroblasts assessed as reduction in LPA-stimulated CTGF mRNA expression preincubated for 48 hrs followed by LPA stimulation and measured after 1 hr by qPCR analysis
[24] = Oral bioavailability in CD-1 mouse at 30 mg/kg by LC-MS/MS analysis; assay type: ADME, organism-based; conditions: in vivo
[25] = Half-life in CD-1 mouse at 30 mg/kg, po by LC-MS/MS analysis; assay type: ADME, organism-based; conditions: in vivo
Homo sapiens [26] = species: Homo sapiens; assay: Inhibition of Rho/MRTF/SRF pathway in human primary dermal fibroblasts assessed as reduction in LPA-stimulated CTGF mRNA expression by measuring CTGF mRNA level at 10^-6 M preincubated for 72 hrs followed by LPA stimulation and measured after 1 hr by qPCR analysis relative to control; parameters: scale not given: the % may be the effect or the level left
PC-3 [27] = assay: Cytotoxicity against human PC3 cells assessed as reduction in cell viability by CellTiter-Fluor assay; assay type: cell-based

Compound | IC50 [1] | Activity (PC-3 [2]) | IC50 [3] | Activity (HEK-293T) | also measured
O=C(O)CCSc1nnc(-c2ccccc2)o1 | 3500 nM | < 5% | – | – | –
Cc1cccc(-c2nnc(SCCC(=O)O)o2)c1 | 180 nM | < 5% | – | – | –
O=C(O)CCSc1nnc(-c2ccncc2)o1 | > 100000 nM | – | – | – | –
O=C(O)CCSc1nc2ccccc2n1Cc1ccccc1 | > 100000 nM | – | – | – | –
Cc1cc(-c2nnc(SCCC(=O)O)o2)c(Cl)cc1Cl | – | – | 0.32 nM | < 5% | –
O=C(O)CCCSc1nnc(-c2ccc(Cl)cc2Cl)o1 | 1.8 nM | < 5% | 0.84 nM | < 5% | AUC [4]: 10700 ng·h/mL; AUC [5]: 11100 ng·h/mL; Cmax [6]: 23200 ng/mL; Cmax [7]: 35600 ng/mL; solubility thermodynamic [8]: 841 µM (≈ 280 µg/mL); clearance [9]: 15.5 mL/min/kg; bioavailability [10]: 52%; half-life [11]: 1.4 h; half-life [12]: 1.2 h; t1/2 [13]: > 1 h
CC(C)(F)c1ccc(-c2nnc(SCCCC(=O)O)o2)c(Cl)c1 | – | – | 0.5 nM | < 5% | –
Cc1occc1-c1nnc(SCCC(=O)O)o1 | > 100000 nM | – | – | – | –
CCOC(=O)CCSc1nnc(-c2ccc(Cl)cc2Cl)o1 | 2.6 nM | < 5% | – | – | –
O=C(O)CCCSc1nnc(-c2ccc(-c3ccccc3)cc2Cl)o1 | – | – | 25 nM | < 5% | –
Cc1ccc(-c2nnc(SCCC(=O)O)o2)cc1 | 34 nM | < 5% | – | – | –
O=C(O)CCSc1nnc(-c2ccc(Cl)cc2)o1 | 340 nM | < 5% | – | – | –
O=C(O)CCSc1nnc(-c2ccc(Cl)cc2Cl)o1 | 4 nM | < 5% | 2 nM | < 5% | Cmax [14]: 34000 ng/mL; AUC [15]: 63200 ng·h/mL; t1/2 [16]: 2 h; inhibition (Homo sapiens [17]): Dose-dependent effect; AUC [18]: 47400 ng·h/mL; solubility thermodynamic [8]: 682 µM (≈ 218 µg/mL); Activity (Mus musculus [19]): Dose-dependent effect; Activity (Mus musculus [20]): Dose-dependent effect; Cmax [21]: 88600 ng/mL; t1/2 [13]: > 1 h; clearance [22]: 5.3 mL/min/kg; inhibition (Homo sapiens [23]): inactive; bioavailability [24]: 67%; half-life [25]: 2 h
Cc1ccc(-c2nnc(SCCC(=O)O)o2)c(Cl)c1C | – | – | 0.02 nM | < 5% | –
Cc1ccc(-c2nnc(SCCC(=O)O)o2)c(Cl)c1 | 1.5 nM | < 5% | – | – | –
COc1ccc(-c2nnc(SCCCC(=O)O)o2)c(Cl)c1 | – | – | 2 nM | < 5% | –
CNC(=O)CCSc1nnc(-c2ccc(Cl)cc2Cl)o1 | – | < 5% | – | – | –
O=C(O)CSc1nnc(-c2ccc(Cl)cc2Cl)o1 | – | < 5% | – | – | –
O=C(O)CCCc1nnc(-c2ccc(Cl)cc2Cl)o1 | – | – | > 100000 nM | – | –
O=C(O)CCCS(=O)(=O)c1nnc(-c2ccc(Cl)cc2Cl)o1 | – | – | > 100000 nM | – | –
O=C(O)CCCSc1nnc(-c2cccc(C3CC3)c2Cl)o1 | – | – | 0.019 nM | < 5% | –
O=C(O)CCCSc1nnc(-c2ccc(C(F)(F)F)cc2Cl)o1 | – | – | 0.06 nM | < 5% | t1/2 [13]: > 1 h
COC(=O)c1ccc2c(c1)NC(=O)/C2=C(\Nc1ccc(N(C)C(=O)CN2CCN(C)CC2)cc1)c1ccccc1 [NINTEDANIB] | 1300 nM | – | – | – | Activity (Homo sapiens [26]): 45%; IC50 (PC-3 [27]): < 30000 nM
O=C(O)CSCc1nnc(-c2ccc(Cl)cc2Cl)o1 | – | – | 11500 nM | – | –
COc1cccc(-c2nnc(SCCC(=O)O)o2)c1 | 3600 nM | < 5% | – | – | –
